Results as given in publication PMC3006138, “Fexinidazole – A New Oral Nitroimidazole Drug Candidate Entering Clinical Development for the Treatment of Sleeping Sickness” (PLoS Neglected Tropical Diseases, 2010).
Several values for one entry are separate records, joined by “and”; a condition that tells them apart may be missing. Identical values can stand only once.

Legend:
[1] = Mouse pharmacokinetics after 5-day oral dosing; details: for AUC0-tlast / AUC0-∞: fexinidazole 200 mg/kg/day po, Day 5
Description: The study was conducted according to the study protocol [1].
gavage daily for 5 consecutive days at a dose of 200 mg/kg in a 5 % tween 80/ 0.5 %
Formulation Preparation and Concentration Check
were prepared according to the procedure already developed [2]; a sufficient volume of each
suspension was prepared in order to support the 5-day repeated oral administration. The
suspensions were stored at +4°C. The supportive stability data for the Fexinidazole
suspension after 7 days at +4°C was performed.
a specific, not validated, HPLC-UV method [2]. Three samples were analyzed for each
Sample Collection and Handling
About 0.05-0.07 mL of blood/sampling time were taken from the saphenous vein using
heparinized tubes (pre-cooled in an ice/water bath) and were centrifuged at 10000g for 3
minutes at 4°C. The separated plasma was stored at -80°C until analysis. Blood was taken at
validated LC-MS-MS methods.
Pharmacokinetic Calculations
Pharmacokinetic evaluation was carried out using a non-compartmental approach with the
aid of the Watson package (v. 6.4.0.04, Thermo Fisher Scientific, Waltham, MA, USA).
For the calculations, pre-dose concentrations of both compounds were set equal to zero.
After both compounds, on Day 5, Cmax and tmax were read from the raw plasma data as the
coordinates of the highest measured concentration. The area under plasma concentration vs.
time curve to finite time, AUC0-t(last), was determined by the linear trapezoidal rule up to the
last detectable concentration. The half-life of the terminal phase, t1/2,z, was determined by
linear regression analysis of the natural-log concentration vs. time curve, where t1/2,z =
ln(2)/slope of the regression line.
Descriptive statistics (mean ± SD, %CV) were reported for plasma concentrations and
pharmacokinetic parameters sorted by compound.
reported to three significant figures.
Plasma concentrations of sulphoxide and sulphone Fexinidazole metabolites were determined
by a LC-MS-MS method. The lower limit of the bioanalytical method was 5 ng/mL (run 1)
(v. 6.4.0.04, Thermo Fisher Scientific, Waltham, MA, USA).
Pharmacokinetic evaluations of the sulphone and sulphoxide metabolites were carried out
using non-compartmental approach with the aid of the Watson package (v. 6.4.0.04, Thermo
Fisher Scientific, Waltham, MA, USA).
After both doses, for the calculations, the pre-dose concentrations of the metabolites were set
Cmax and tmax were read from raw data as the coordinates of the highest measured

rat hepatocytes = assay: Hepatocyte intrinsic clearance and metabolite profile; type: in vitro ADME; details: fexinidazole 10 µM
Description: Fexinidazole was incubated with cryopreserved hepatocytes from male CD-1 mice, male Sprague Dawley rats, male beagle dogs, male cynomolgus monkeys, and from pooled white or African-American human donor samples (purchased commercially), at concentrations of 1 µM and 10 µM. […] The incubated samples were analyzed by LC-MS after extraction into acetonitrile.
A quality control analysis of fexinidazole was performed via 1H-NMR in DMSO and LC- […]
provided by the Swiss Tropical Institute (Basel, Switzerland).
Reagents and solvents were of analytical grade and obtained from Sigma-Aldrich (St. Louis, […]
Cryopreserved hepatocytes from the male CD1 mouse, lot CSI; male Sprague Dawley rat, lot LPL; male beagle dog, lot BWX; male cynomolgus monkey, lot EHH; and pooled human samples, lot MJI, were purchased from In Vitro Technologies Inc (Baltimore, Maryland, […]
5.4. In vitro Incubations
On the day of the experiment a 10 mM stock solution of fexinidazole in DMSO was prepared and, within 3 hours, aliquots of this freshly prepared solution, after suitable dilution, were added to the incubation matrix, to reach fexinidazole final concentrations of 1 and 10 µM. The final percentage of DMSO was 0.01% in the incubation samples for the […]
On the day of experiment, the cryopreserved hepatocytes were thawed following the detailed instructions provided by the supplier.
The number of viable cells was determined using a Trypan Blue exclusion method.
5.4.1. Intrinsic Clearance Study […]
µM with mouse, rat, dog, monkey and human hepatocytes (300000 cells/mL for the mouse and 1 million cells/mL for the other species) in a final incubation volume of 0.75 mL […]
Incubations were performed in duplicate in a 48-well plate under shaking. Sampling was performed using an automatic liquid handling system (Multiprobe II EX, Packard). At 0, 1, 5, 10, 15, 20, 30, 60 and 120 minutes, 50 µL aliquots of the incubates were taken, then 80 µL of ice-cold acetonitrile and 20 µL of 1 µM warfarin in acetonitrile (internal standard) were added, and samples centrifuged at 2000 rpm for 20 min. The supernatant was analyzed by LC-MS/MS. […]
the medium alone at t = 0 and 120 minutes.
For the determination of phase I and phase II activity of hepatocytes, 7-ethoxycoumarin (7-EC) 1 µM, and 7-hydroxycoumarin (7-HC) 30 µM were used as positive controls and incubated under the same conditions as fexinidazole. Aliquots of incubates were taken at 0, 10, 20, 30, 60 and 120 minutes and processed as fexinidazole samples.
5.4.2. Metabolite Profile Study
For metabolite profiling, fexinidazole was incubated at a concentration of 10 µM with mouse, rat, dog, monkey and human hepatocytes (300000 cells/mL for the mouse and 1 million cells/mL for the other species) in a final incubation volume of 2 mL Leibovitz L-15 […]
Aliquots of the incubation samples were taken at t = 0, 30 and 120 minutes; the metabolism was stopped by the addition of an equal volume of cold acetonitrile and the samples centrifuged at 1500 rpm for 20 min. The supernatant was stored at -20°C until analysis. Control incubations were performed with the compound in the medium alone […]
5.5. Analysis of Samples for Intrinsic Clearance Determination
The analysis of the samples for intrinsic clearance determination was performed by an LC-MS/MS method, using the following conditions:
HPLC Equipment and Conditions
HPLC system Agilent 1100 binary pump (Agilent, Palo Alto, USA)
Autosampler CTC Pal (Alfatech, San Jose, USA)
Analytical column Guard Column SB-C8 4.6 x 12.5 mm, 5 µm (Zorbax)
Column temperature ambient
Mobile phase A 10 mM ammonium formate pH 4.0: acetonitrile (95:5, v:v)
Mobile phase B 10 mM ammonium formate pH 4.0: acetonitrile (5:95, v:v) […]
Gradient conditions Step Total time (min) flow (µL/min) %A % B […]
MS Equipment and Conditions
Mass spectrometer API 4000 Triple Quadrupole (MDS-Sciex, Toronto, […]
Source Turbo Ion Spray (TIS)
Ion mode Positive for fexinidazole and 7-EC.
Negative for 7-HC, 7-HC sulphate and 7-HC glucuronide.

L-6 rat myoblast cells = assay: Cytotoxicity assay; type: cell-based; details: 72 h, read-out: IC50
Description: 10 µL of Alamar Blue was added for the final 3 h to determine viability. […] The IC50 values were calculated from the sigmoidal inhibition curves. For cytotoxicity, 4×10^4/mL L-6 rat skeletal myoblast cells were used, and incubations and assessments carried out as above.

[2] = Dog 28-day toxicokinetics; type: in vivo; details: both sexes, beagle, plasma, po
Description: In the dog repeated-dose toxicokinetic study, fexinidazole was given orally by gavage once a day for 28 days to five (control and high dose) or three (low and mid dose) beagle dogs/sex/dose at the doses of 0 (control group), 50, 200, or 800 mg/kg/day. The control group received the vehicle alone (same as above). Systemic exposure to fexinidazole and of its sulfoxide and sulfone metabolites was evaluated on days 1, 14 and 28 in the same animals used for the toxicological study. Samples were taken at predose, and 30 min, 1, 2, 4, 8 and 24 h after dosing on days 1, 14, and 28, and in addition at 48 and 72 h after treatment on day 28.

[3] = male, NMRI, mouse, plasma, po, 200 mg/kg/day
[4] = 50 mg/kg/day, 50 mg/kg/day po, day 1
[5] = 50 mg/kg/day, 50 mg/kg/day po, day 1, read-out: AUC0-t(last)
[6] = 50 mg/kg/day, 50 mg/kg/day po, day 14
[7] = 50 mg/kg/day, 50 mg/kg/day po, day 14, read-out: AUC0-t(last)
[8] = 200 mg/kg/day, 200 mg/kg/day po, day 1
[9] = 200 mg/kg/day, 200 mg/kg/day po, day 1, read-out: AUC0-t(last)
[10] = 200 mg/kg/day, 200 mg/kg/day po, day 14
[11] = 200 mg/kg/day, 200 mg/kg/day po, day 14, read-out: AUC0-t(last)
[12] = 800 mg/kg/day, 800 mg/kg/day po, day 1
[13] = 800 mg/kg/day, 800 mg/kg/day po, day 1, read-out: AUC0-t(last)
[14] = 800 mg/kg/day, 800 mg/kg/day po, day 14
[15] = 800 mg/kg/day, 800 mg/kg/day po, day 14, read-out: AUC0-t(last)

Row | Compound | Cmax [1, 3] [µg/mL] | Tmax [1, 3] [h] | half-life [1, 3] [h] | IC50 (L-6 rat myoblast cells) | Cmax [2, 4] [µg/mL] | Tmax [2, 4] [h] | AUC(0-t) [2, 5] [µg·h/mL] | Cmax [2, 6] [µg/mL] | Tmax [2, 6] [h] | AUC(0-t) [2, 7] [µg·h/mL] | Cmax [2, 8] [µg/mL] | Tmax [2, 8] [h] | AUC(0-t) [2, 9] [µg·h/mL] | Cmax [2, 10] [µg/mL] | Tmax [2, 10] [h] | AUC(0-t) [2, 11] [µg·h/mL] | Cmax [2, 12] [µg/mL] | Tmax [2, 12] [h] | AUC(0-t) [2, 13] [µg·h/mL] | Cmax [2, 14] [µg/mL] | other results
1 | CSc1ccc(OCc2ncc([N+](=O)[O-])n2C)cc1 [Fexinidazole, 1-methyl-2-((p-(methylthio)phenoxy)methyl)-5-nitroimidazole] | 0.457 ± 0.179 | 0.833 ± 0.289 | 2.76 ± 1.26 | > 90 µg/mL and > 322 µM | 0.04 ± 0.01 | 0.75 ± 0.61 | 0.19 ± 0.13 | 0.03 ± 0.01 | 1.08 ± 0.74 | 0.15 ± 0.13 | 0.07 ± 0.03 | 1 ± 0.55 | 0.44 ± 0.09 | 0.08 ± 0.01 | 1.5 ± 0.77 | 0.45 ± 0.14 | 0.14 ± 0.07 | 1.15 ± 0.47 | 0.84 ± 0.32 | 0.14 ± 0.05 | AUC(0-t) [1, 3]: 1.53 ± 0.348 µg·h/mL; % of total drug related material (rat hepatocytes; t=0): 68%; Tmax [2, 14]: 1.2 ± 0.42 h; AUC(0-t) [2, 15]: 1.05 ± 0.3 µg·h/mL
2 | Cn1c([N+](=O)[O-])cnc1COc1ccc([S+](C)[O-])cc1 (centres unmarked) [Fexinidazole sulfoxide] | 33.6 | 0.833 | 4.31 | > 90 µg/mL and > 305 µM | 3.76 ± 0.97 | 1.17 ± 0.41 | 19.6 ± 5.68 | 2.99 ± 0.98 | 1.33 ± 0.52 | 13.6 ± 5.99 | 8.12 ± 2.66 | 1.25 ± 0.61 | 51.4 ± 14.1 | 8.99 ± 2.83 | 2 | 56.7 ± 16.6 | 14.5 ± 3.95 | 1.55 ± 0.6 | 112 ± 31.8 | 13.6 ± 4.09 | AUC0-tlast [1]: 161 µg·h/mL; AUC0-∞ [1]: 197 µg·h/mL; % of total drug related material (rat hepatocytes; 30 min): 90%; % of total drug related material (rat hepatocytes; 120 min): 68%; % of total drug related material (rat hepatocytes; t=0): 32%; Tmax [2, 14]: 1.6 ± 0.97 h; AUC(0-t) [2, 15]: 129 ± 39.8 µg·h/mL
3 | Cn1c([N+](=O)[O-])cnc1COc1ccc(S(C)(=O)=O)cc1 [Fexinidazole sulfone] | 77.6 | 3 | 2.75 | > 90 µg/mL and > 289 µM | 8.58 ± 2.15 | 7.33 ± 1.63 | 146 ± 38.3 | 7.78 ± 2.89 | 5.33 ± 2.07 | 126 ± 59.1 | 17.6 ± 2.46 | 12.7 ± 8.91 | 348 ± 63.9 | 21.8 ± 3.86 | 5.33 ± 2.07 | 384 ± 49.9 | 36.1 ± 7.94 | 14.4 ± 8.26 | 660 ± 164 | 36.6 ± 6.24 | AUC0-tlast [1]: 1050 µg·h/mL; AUC0-∞ [1]: 1060 µg·h/mL; % of total drug related material (rat hepatocytes; 30 min): 10%; % of total drug related material (rat hepatocytes; 120 min): 32%; Tmax [2, 14]: 6.8 ± 1.93 h; AUC(0-t) [2, 15]: 653 ± 118 µg·h/mL
